Reference: patent US4788188A, “Quinolylglycinamide derivatives, the process for preparation thereof and their therapeutic application as psychotropic drugs” (Sanofi (S.A.), priority 1985, dated 1988)
Where a name gives a salt, the structure may show the parent alone.

Assays:
[1] = biological target: benzodiazepine receptors; experiment: Affinity for benzodiazepine receptors: inhibition of specific binding of [3H]flunitrazepam (WASTEK et al., modified); set-up: species or system rats; conditions: 50% inhibition of specific binding of [3H]flunitrazepam, rat brain membranes
Procedure: This study was performed according to the technique of WASTEK et al., (Europ. J. Pharmacol., 1978, 50, 445-447) slightly modified.
Rats are sacrificed by decapitation, and the brain is removed, ground, suspended, centrifuged and resuspended.
Samples of this suspension are incubated in the presence of [^3 H]flunitrazepam, alone or in the presence of increasing concentrations of the test compound.
The radioactivity bound on the membranes is then determined by liquid scintillation.
The concentration of product which 50% inhibits the specific binding of [^3 H]flunitrazepam (IC50) is thereby determined.

[2] = system: food neophobia; experiment: Anxiolytic activity: food neophobia test; format: in vivo, mice; conditions: dose 32 mg/kg, SC, 30 minutes after treatment
Procedure: This activity was studied by the food neophobia test. In effect, a pronounced inhibition of the feed intake can be obtained in mice when both the food and the enclosure are unfamiliar to the aninal (R. J. STEPHENS, Brit. J. Pharmacol., 1973, 47, 145 P). All anxiolytics specifically counteract neophobia phenomena.
30 minutes after oral or subcutaneous treatment with the test derivatives and the reference products, the mice, fasted for 16 to 20 hours, are isolated in a translucent enclosure and placed in the presence of an unfamiliar food for 5 minutes.
The amounts consumed are evaluated in proportion to the weight of the animal.
In each batch, the mean consumption and also the percentage variation relative to the control batch are calculated in this manner.

[3] = system: pentetrazole seizures; experiment: Anticonvulsant activity: protection against pentetrazole seizures (EVERETT and RICHARDS); format: in vivo, mice; conditions: pentetrazole 125 mg/kg subcutaneously, no tonic seizures during 30 minutes, 95% confidence limits (FINNEY); for ED50: Mus musculus, po, 0.5 h, read-out: ED50 (Confidence interval)
Procedure: The protective effect produced by the compound of the inventon against pentetrazole seizures was studied.
This test was carried out according to the method of EVERETT and RICHARDS (J. Pharm. Exp. Ther., 1944, 81, 402-407). The test products and reference products were administered orally (suspended in gum arabic) to batches of 10 mice, 30 minutes […] pentetrazole (125 mg/kg subcutaneously).

Compound: CCCN(CCC)C(=O)CNc1c(C(=O)O)cnc2ccc(Br)cc12 [Derivative 47, 2-(3-Carboxy-6-bromo-4-quinolyl)amino-N,N-dipropylacetamide monohydrate]
- IC50 [1]: 1 nM

Compound: CCN(CC)C(=O)CNc1c(C(=O)O)cnc2ccc(C)cc12 [Derivative 44, 2-(3-Carboxy-6-methyl-4-quinolyl)amino-N,N-diethylacetamide]
- Percentage increase (food consumption relative to control batch) [2]: 50%
- IC50 [1]: 46 nM

Compound: C#CCN(C)C(=O)CNc1c(C(=O)OCC)cnc2ccc(Cl)cc12 [Derivative 36, 2-(3-Ethoxycarbonyl-6-chloro-4-quinolyl)amino-N-methyl-N-(2-propynyl)acetamide]
- IC50 [1]: 99 nM

Compound: CCOC(=O)c1cnc2ccc(Cl)cc2c1NCC(=O)N(C)C1CCCCC1 [Derivative 23, 2-(3-Ethoxycarbonyl-6-chloro-4-quinolyl)amino-N-methyl-N-cyclohexylacetamide]
- IC50 [1]: 100 nM

Compound: O=C(O)c1cnc2ccc(Cl)cc2c1NCC(=O)N1CCCCCC1 [Derivative 45, 1-{2-[(3-Carboxy-6-chloro-4-quinolyl)amino]acetyl}-homopiperidine]
- IC50 [1]: 7 nM

Compound: CCCN(CCC)C(=O)CN(C)c1c(C(=O)OCc2ccccc2)cnc2ccc(C)cc12 [Derivative 53, [N'-(3-Benzyloxycarbonyl-6-methyl-4-quinolyl)-N'-methylamino]-N,N-dipropylacetamide]
- IC50 [1]: 638 nM

Compound: CCOC(=O)c1cnc2ccc(Cl)cc2c1NCC(=O)N(C)c1ccc(Cl)cc1 [Derivative 24, 2-(3-Ethoxycarbonyl-6-chloro-4-quinolyl)amino-N-methyl-N-(4-chlorophenyl)acetamide]
- IC50 [1]: 251 nM

Compound: CCOC(=O)c1cnc2ccc(Cl)cc2c1NCC(=O)N1CCCCCC1 [Derivative 27, 1-{2-[(3-Ethoxycarbonyl-6-chloro-4-quinolyl)amino]acetyl}homopiperidine]
- IC50 [1]: 38 nM

Compound: CCCN(C(=O)CNc1c(C(=O)OCC)cnc2ccc(Cl)cc12)c1ccccc1 [Derivative 35, 2-(3-Ethoxycarbonyl-6-chloro-4-quinolyl)amino-N-propyl-N-phenylacetamide]
- IC50 [1]: 27 nM

Compound: CCCN(CCC)C(=O)CNc1c(C(=O)OCC)cnc2ccc(OCC)cc12 [Derivative 16, 2-(3-Ethoxycarbonyl-6-ethoxy-4-quinolyl)amino-N,N-dipropylacetamide]
- IC50 [1]: 38 nM

Compound: CCOC(=O)c1cnc2ccc(Cl)cc2c1NCC(=O)N(C)c1ccccc1 [Derivative 22, 2-(3-Ethoxycarbonyl-6-chloro-4-quinolyl)amino-N-methyl-N-phenylacetamide]
- IC50 [1]: 14 nM

Compound: CCOC(=O)c1cnc2ccc(Cl)cc2c1NCC(=O)N(C)C [Derivative 29, 2-(3-Ethoxycarbonyl-6-chloro-4-quinolyl)amino-N,N-dimethylacetamide]
- ED50 [3]: 38 mg/kg
- IC50 [1]: 687 nM

Compound: CCCN(CCC)C(=O)CN(C)c1c(C(=O)OCc2ccccc2)cnc2ccc(Cl)cc12 [Derivative 52, [N'-(3-Benzyloxycarbonyl-6-chloro-4-quinolyl)-N'-methylamino]-N,N-dipropylacetamide]
- ED50 [3]: 31 mg/kg
- IC50 [1]: 727 nM

Compound: CCCCc1ccc2ncc(C(=O)OCC)c(NCC(=O)N(CC)CC)c2c1 [Derivative 6, 2-(3-Ethoxycarbonyl-6-butyl-4-quinolyl)amino-N,N-diethylacetamide]
- IC50 [1]: 155 nM

Compound: CCCN(CCC)C(=O)CN(C)c1c(C(=O)OCC)cnc2ccc(C)cc12.Cl [Derivative 61, [N'-(3-Ethoxycarbonyl-6-methyl-4-quinolyl)-N'-methylamino]-N,N-dipropylacetamide hydrochloride]
- ED50 [3]: 24 mg/kg

Compound: CCOC(=O)c1cnc2ccc(Cl)cc2c1NCC(=O)N(CC(C)C)CC(C)C [Derivative 21, 2-(3-Ethoxycarbonyl-6-chloro-4-quinolyl)amino-N,N-diisobutylacetamide]
- IC50 [1]: 28 nM

Compound: CCOC(=O)c1cnc2ccc(Cl)cc2c1NCC(=O)N1CCOCC1 [Derivative 28, 1-{2-[(3-Ethoxycarbonyl-6-chloro-4-quinolyl)amino]acetyl}morpholine]
- IC50 [1]: 600 nM

Compound: CCN(CC)C(=O)CNc1c(C(=O)OCc2ccccc2)cnc2ccc(Cl)cc12 [Derivative 50, 2-(3-Benzyloxycarbonyl-6-chloro-4-quinolyl)amino-N,N-diethylacetamide]
- IC50 [1]: 27 nM

Compound: CCCNC(=O)c1cnc2ccc(Cl)cc2c1NCC(=O)N(CC)CC [Derivative 55, 2-[3-(N-Propylcarbamoyl)-6-chloro-4-quinolyl]amino-N,N-diethylacetamide]
- IC50 [1]: 150 nM

Compound: CCOC(=O)c1cnc2ccc(Cl)cc2c1NCC(=O)N1CCCC1 [Derivative 26, 1-{2-[(3-Ethoxycarbonyl-6-chloro-4-quinolyl)amino]acetyl}pyrrolidine]
- ED50 [3]: 50 mg/kg
- IC50 [1]: 333 nM

Compound: CCCN(CCC)C(=O)CN(C)c1c(C(=O)OCC)cnc2ccc(Br)cc12 [Derivative 63, [N'-(3-Ethoxycarbonyl-6-bromo-4-quinolyl)-N'-methylamino]-N,N-dipropylacetamide]
- ED50 [3]: 24 mg/kg

Compound: CCC1(c2ccccc2)C(=O)NC(=O)NC1=O [Phenobarbital, reference compound]
- ED50 [3]: 10 mg/kg

Compound: CCOC(=O)c1cnc2ccc(C)cc2c1NCC(=O)N(CC)CC [Derivative 2, 2-[(3-Ethoxycarbonyl-6-methyl)-4-quinolyl]amino-N,N-diethylacetamide hydrochloride]
- IC50 [1]: 41 nM

Compound: CCOC(=O)c1cnc2ccc(Cl)cc2c1NCC(=O)N1CCCCC1 [Derivative 25, 1-{2-[(3-Ethoxycarbonyl-6-chloro-4-quinolyl)amino]acetyl}piperidine]
- ED50 [3]: 33 mg/kg
- IC50 [1]: 148 nM

Compound: CCOC(=O)c1cnc2ccc(Cl)cc2c1NCC(=O)N(CC)CC [1 maleate]
- ED50 (Confidence interval) ([3]; oral, 30 min): 27 (18-36) mg/kg

Compound: CCCN(CCC)C(=O)CNc1c(C(=O)OCC)cnc2ccccc12 [Derivative 15, 2-(3-Ethoxycarbonyl-4-quinolyl)amino-N,N-dipropylacetamide]
- IC50 [1]: 483 nM

Compound: CCOC(=O)c1cnc2ccc(Cl)cc2c1NCC(=O)NC [Derivative 41, 2-(3-Ethoxycarbonyl-6-chloro-4-quinolyl)amino-N-methylacetamide]
- ED50 [3]: 46 mg/kg
- IC50 [1]: 440 nM

Compound: CCCN(CCC)C(=O)CNc1c(C(=O)OCC)cnc2ccc(SC)cc12 [Derivative 20, 2-(3-Ethoxycarbonyl-6-methylthio-4-quinolyl)amino-N,N-dipropylacetamide]
- IC50 [1]: 40 nM

Compound: CCCN(CCC)C(=O)CNc1c(C(C)=O)cnc2ccc(C)cc12 [Derivative 66, 2-(3-Acetyl-6-methyl-4-quinolyl)amino-N,N-dipropylacetamide]
- IC50 [1]: 92 nM

Compound: CCOC(=O)c1cnc2ccc(C3CCCCC3)cc2c1NCC(=O)N(CC)CC [Derivative 9, 2-(3-Ethoxycarbonyl-6-cyclohexyl-4-quinolyl)amino-N,N-diethylacetamide]
- IC50 [1]: 900 nM

Compound: CCOC(=O)c1cnc2ccc(Cl)cc2c1NCC(N)=O [Derivative 30, 2-[(3-Ethoxycarbonyl-6-chloro-4-quinolyl)amino]acetamide]
- IC50 [1]: 700 nM

Compound: CCOC(=O)c1cnc2ccc(F)cc2c1NCC(=O)N(CC)CC [Derivative 7, 2-(3-Ethoxycarbonyl-6-fluoro-4-quinolyl)amino-N,N-diethylacetamide]
- IC50 [1]: 639 nM

Compound: CCCN(CCC)C(=O)CNc1c(C(=O)OCC)cnc2ccc([N+](=O)[O-])cc12 [Derivative 18, 2-(3-Ethoxycarbonyl-6-nitro-4-quinolyl)amino-N,N-dipropylacetamide]
- IC50 [1]: 26 nM

Compound: CCOC(=O)c1cnc2ccccc2c1NCC(=O)N(CC)CC [Derivative 10, 2-(3-Ethoxycarbonyl-4-quinolyl)amino-N,N-diethylacetamide]
- ED50 [3]: 68 mg/kg
- IC50 [1]: 1560 nM

Compound: CCN(CC)C(=O)CNc1c(C(=O)Nc2ccccc2)cnc2ccc(Cl)cc12 [Derivative 56, 2-[3-(N-Phenylcarbamoyl)-6-chloro-4-quinolyl]amino-N,N-diethylacetamide]
- IC50 [1]: 136 nM

Compound: CCCCOC(=O)c1cnc2ccc(Cl)cc2c1NCC(=O)N(CC)CC [Derivative 49, 2-(3-Butoxycarbonyl-6-chloro-4-quinolyl)amino-N,N-diethylacetamide]
- ED50 [3]: 54 mg/kg
- IC50 [1]: 61 nM

Compound: CCCN(CCC)C(=O)CNc1c(C(=O)OCC)cnc2ccc(C(F)(F)F)cc12 [Derivative 19, 2-(3-Ethoxycarbonyl-6-trifluoromethyl-4-quinolyl)amino-N,N-dipropylacetamide]
- IC50 [1]: 28 nM

Compound: CCN(CC)C(=O)CNc1c(C(=O)OC(C)C)cnc2ccc(Cl)cc12 [Derivative 48, 2-(3-Isopropyloxycarbonyl-6-chloro-4-quinolyl)amino-N,N-diethylacetamide]
- IC50 [1]: 69 nM

Compound: CCOC(=O)c1cnc2ccc(Cl)cc2c1NCC(=O)N(C(C)C)C(C)C [Derivative 34, 2-(3-Ethoxycarbonyl-6-chloro-4-quinolyl)amino-N,N-diisopropylacetamide]
- IC50 [1]: 48 nM
